# Key:
# [1] = target: T1, CobW (Rhodobacter capsulatus, UniProt D5AV10); experiment: Co(II) titration UV-vis, nucleotide-induced metal site at […] nm; assay type: binding; conditions: 10 mM HEPES pH 7.0, 100 mM NaCl, 400 mM KCl, anaerobic, indirect read-out, no nucleotide constant
# T1 construct: full length, untagged (natural His-rich region), initiator Met cleaved; E. coli BL21(DE3) pLysS; six cysteines
# T1 sequence (D5AV10 2-348): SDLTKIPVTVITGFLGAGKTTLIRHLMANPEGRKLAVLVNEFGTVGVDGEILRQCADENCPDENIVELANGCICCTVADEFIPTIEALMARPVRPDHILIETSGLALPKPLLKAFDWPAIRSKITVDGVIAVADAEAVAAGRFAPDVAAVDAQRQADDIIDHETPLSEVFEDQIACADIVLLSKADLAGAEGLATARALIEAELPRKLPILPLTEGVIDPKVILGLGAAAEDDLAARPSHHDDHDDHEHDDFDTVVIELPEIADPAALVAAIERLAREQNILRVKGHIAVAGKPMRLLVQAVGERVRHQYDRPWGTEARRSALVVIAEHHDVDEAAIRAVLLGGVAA
# [2] = target: T1, CobW; experiment: Co(II) titration UV-vis at […] nm and gel filtration/ICP-MS; assay type: binding; conditions: 10 mM HEPES pH 7.0, 100 mM NaCl, 400 mM KCl, anaerobic, with or without Mg(II) 2.7 mM, indirect read-out, no nucleotide constant
# [3] = target: T1, CobW; experiment: GTP hydrolysis by anion-exchange chromatography, […] nm; assay type: biochemical; conditions: 20 uM CobW, 200 uM GTP, 2.7 mM Mg(II), 18 uM Co(II), HEPES pH 7.0, anaerobic; slow turnover
compound,measurement,setting,value
Nc1nc2c(ncn2[C@@H]2O[C@H](COP(=O)(O)OP(=O)(O)O)[C@@H](O)[C@H]2O)c(=O)[nH]1 [GDP],"Co(II) titration UV-vis, nucleotide-induced metal site at 339 nm",[1]; Mg(II) 2.7 mM,"Mg^IIGDP-CobW, despite displaying identical absorbance features indicating the persistence of the cysteine-rich tetrahedral site"
Nc1nc2c(ncn2[C@@H]2O[C@H](COP(=O)(O)OP(=O)(O)NP(=O)(O)O)[C@@H](O)[C@H]2O)c(=O)[nH]1 [GMPPNP],Co(II) titration UV-vis at 339 nm and gel filtration/ICP-MS,[2],binding of guanine nucleotides to CobW promotes tight coordination of two metal ions
Nc1nc2c(ncn2[C@@H]2O[C@H](COP(=O)(O)OP(=O)(O)OP(=O)(O)O)[C@@H](O)[C@H]2O)c(=O)[nH]1 [GTP],"GTP hydrolysis by anion-exchange chromatography, 254 nm",[3],CobW-catalysed GTP hydrolysis is sufficiently slow such that nucleotides remain predominantly unhydrolysed
same,"Co(II) titration UV-vis, nucleotide-induced metal site at 339 nm",[1]; Mg(II) 2.7 mM,binding of Mg^II and guanine nucleotides preassembles one distinct Co^II site in CobW
Nc1nc2c(ncn2[C@@H]2O[C@H](COP(=O)(O)OP(=O)(O)OP(O)(O)=S)[C@@H](O)[C@H]2O)c(=O)[nH]1 [GTPγS],"Co(II) titration UV-vis, nucleotide-induced metal site at 339 nm",[1]; with or without Mg(II) 2.7 mM,"Equivalent experiments performed with GTP and an alternate stable analogue, GTPγS, generated indistinguishable spectra"
